Data from patent publication US8883782B2, “Spiro-tetracyclic ring compounds as beta-secretase modulators and methods of use” (Amgen Inc., priority 2010, dated 2014).
Like-named read-outs stand apart in the source and are kept apart here.

Key:
[1] = target: Beta Secretase enzyme (BACE) (Homo sapiens, UniProt P56817); assay: In vitro enzymatic BACE FRET (fluorescence resonance energy transfer) assay; format: biochemical; settings: average IC50, enzyme assay; read-out: BACE 1 FRET assay
Outline: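 Cleavage of a 50 nM fluorophore/quencher peptide FRET substrate by BACE for 1 h in 0.05 M acetate pH 4.2, 10% DMSO, 100 uM genapol. Reaction stopped with Tris to neutral pH before fluorescence reading.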

[2] = system: Aβ40 in conditioned medium of cells stably expressing Amyloid Precursor Protein (APP); assay: In vitro BACE cell-based assay (Aβ40 in conditioned medium, sandwich ELISA); settings: read-out: HEK cell assay
Outline: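 Step two: 10-point compound titration added, starting 100 μM or 10 μM, 0.1% DMSO. Step three: medium Aβ40 measured by ELISA, capture 3 h and detection 2 h at 4° C, TRF read.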

[3] = Homo sapiens, HEK293, average IC50, HEK cells

Beta Secretase enzyme (BACE), sequence (P56817 46-501, species assumed): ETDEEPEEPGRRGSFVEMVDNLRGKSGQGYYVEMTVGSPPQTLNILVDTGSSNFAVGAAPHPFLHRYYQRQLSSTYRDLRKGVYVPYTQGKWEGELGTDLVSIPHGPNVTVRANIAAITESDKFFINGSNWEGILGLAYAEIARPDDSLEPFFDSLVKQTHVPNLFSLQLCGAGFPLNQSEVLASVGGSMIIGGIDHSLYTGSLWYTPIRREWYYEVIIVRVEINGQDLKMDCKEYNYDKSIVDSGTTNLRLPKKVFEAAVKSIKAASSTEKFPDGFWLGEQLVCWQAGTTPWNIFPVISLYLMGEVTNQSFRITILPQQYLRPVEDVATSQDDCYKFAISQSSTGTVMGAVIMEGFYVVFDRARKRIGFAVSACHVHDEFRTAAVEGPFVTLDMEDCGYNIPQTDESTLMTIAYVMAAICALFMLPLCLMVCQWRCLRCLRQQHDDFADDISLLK

Row | IC50 [1] | IC50 [2, 3] | SMILES | IC50 ([2]; average IC50, HEK cells)
1 | 2.3 nM | 27.1 nM | NC1=N[C@@]2(CO1)c1cc(-c3cccnc3)ccc1Oc1cnc(-c3ccnc(F)c3)cc12 [Example 536, (5S)-3-(2-fluoro-4-pyridinyl)-7-(3-pyridinyl)spiro[chromeno[2,3-c]pyridine-5,4′-[1,3]oxazol]-2′-amine] | –
2 | 7.6 nM | 303 nM | COc1cc(-c2cc3c(cn2)Oc2ccc(-c4cccnc4F)cc2[C@@]32COC(N)=N2)ccc1F [Example 537, (5S)-3-(4-fluoro-3-methoxyphenyl)-7-(2-fluoro-3-pyridinyl)spiro[chromeno[2,3-c]pyridine-5,4′-[1,3]oxazol]-2′-amine] | –
3 | 5.2 nM | 583 nM | COc1cc(-c2cc3c(cn2)Oc2ccc(-c4cccc(Cl)c4)cc2[C@@]32COC(N)=N2)ccc1F [Example 538, (5S)-7-(3-chlorophenyl)-3-(4-fluoro-3-methoxyphenyl)spiro[chromeno[2,3-c]pyridine-5,4′-[1,3]oxazol]-2′-amine] | –
4 | 1.7 nM | 38.2 nM | NC1=N[C@@]2(CO1)c1cc(-c3cncnc3)ccc1Oc1cnc(-c3ccnc(F)c3)cc12 [Example 539, (5S)-3-(2-fluoro-4-pyridinyl)-7-(5-pyrimidinyl)spiro[chromeno[2,3-c]pyridine-5,4′-[1,3]oxazol]-2′-amine] | –
5 | 0.8 nM | 7.2 nM | NC1=N[C@@]2(CO1)c1cc(-c3cncnc3)ccc1Oc1cnc(N3CCC(F)(F)C3)cc12 [Example 540, (5S)-3-(3,3-difluoro-1-pyrrolidinyl)-7-(5-pyrimidinyl)spiro[chromeno[2,3-c]pyridine-5,4′-[1,3]oxazol]-2′-amine] | –
6 | 0.4 nM | 12.3 nM | NC1=N[C@@]2(CO1)c1cc(-c3cccnc3F)ccc1Oc1cnc(-c3cc(F)nc(F)c3)cc12 [Example 541, (5S)-3-(2,6-difluoro-4-pyridinyl)-7-(2-fluoro-3-pyridinyl)spiro[chromeno[2,3-c]pyridine-5,4′-[1,3]oxazol]-2′-amine] | –
7 | 1.1 nM | 18.8 nM | NC1=N[C@@]2(CO1)c1cc(-c3cncnc3)ccc1Oc1cnc(-c3cc(F)nc(F)c3)cc12 [Example 542, (5S)-3-(2,6-difluoro-4-pyridinyl)-7-(5-pyrimidinyl)spiro[chromeno[2,3-c]pyridine-5,4′-[1,3]oxazol]-2′-amine] | –
8 | 8.4 nM | 122 nM | CC1(C)C[C@H](c2cc3c(cn2)Oc2ccc(-c4cncnc4)cc2[C@@]32COC(N)=N2)CCO1 [Example 544, (5S)-3-((4R)-2,2-dimethyltetrahydro-2H-pyran-4-yl)-7-(5-pyrimidinyl)spiro[chromeno[2,3-c]pyridine-5,4′-[1,3]oxazol]-2′-amine] | –
9 | 5.6 nM | 406 nM | NC1=N[C@@]2(CO1)c1cc(-c3cccnc3F)ccc1Oc1cnc(-c3ccnc(C(F)(F)F)c3)cc12 [Example 545, (5S)-7-(2-fluoro-3-pyridinyl)-3-(2-(trifluoromethyl)-4-pyridinyl)spiro[chromeno[2,3-c]pyridine-5,4′-[1,3]oxazol]-2′-amine] | –
10 | 0.5 nM | 127 nM | NC1=N[C@@]2(CO1)c1cc(-c3cccc(Cl)c3)ccc1Oc1cnc(-c3ccc(F)c(F)c3)cc12 [Example 550, (5S)-7-(3-chlorophenyl)-3-(3,4-difluorophenyl)spiro[chromeno[2,3-c]pyridine-5,4′-[1,3]oxazol]-2′-amine] | –
11 | 3.4 nM | 80.7 nM | Cc1cc(-c2ccc3c(c2)[C@@]2(COC(N)=N2)c2cc(C4=CCOCC4)ncc2O3)ccc1F [Example 551, (5S)-3-(3,6-dihydro-2H-pyran-4-yl)-7-(4-fluoro-3-methylphenyl)spiro[chromeno[2,3-c]pyridine-5,4′-[1,3]oxazol]-2′-amine] | –
12 | 0.9 nM | 3.1 nM | CC1(COc2cc(F)c3c(c2)[C@]2(COC(N)=N2)c2cc(-c4cncc(C#N)c4)ccc2O3)COC1 [Example 552, 5-((4S)-2-amino-5′-fluoro-7′-((3-methyl-3-oxetanyl)methoxy)spiro[1,3-oxazole-4,9′-xanthen]-2′-yl)-3-pyridinecarbonitrile] | –
13 | 2.4 nM | 13.2 nM | N#Cc1cncc(-c2ccc3c(c2)[C@@]2(COC(N)=N2)c2cc(OCC4CCOCC4)cc(F)c2O3)c1 [Example 553, 5-((4S)-2-amino-5′-fluoro-7′-(tetrahydro-2H-pyran-4-ylmethoxy)spiro[1,3-oxazole-4,9′-xanthen]-2′-yl)-3-pyridinecarbonitrile] | –
14 | 1.6 nM | 6.3 nM | Cn1cc(-c2cc(F)c3c(c2)[C@]2(COC(N)=N2)c2cc(-c4cncc(C#N)c4)ccc2O3)cn1 [Example 554, 5-((4S)-2-amino-5′-fluoro-7′-(1-methyl-1H-pyrazol-4-yl)spiro[1,3-oxazole-4,9′-xanthen]-2′-yl)-3-pyridinecarbonitrile] | –
15 | 290 nM | 1700 nM | COc1cc(F)c2c(c1)[C@@]1(COC(N)=N1)c1cc(-c3cncnc3)c(F)cc1O2 [Example 555, (4R)-3′,5′-difluoro-7′-methoxy-2′-(5-pyrimidinyl)spiro[1,3-oxazole-4,9′-xanthen]-2-amine] | –
16 | 8.9 nM | 146 nM | COc1cc(F)c2c(c1)[C@]1(COC(N)=N1)c1cc(-c3cncnc3)c(F)cc1O2 [Example 556, (4S)-3′,5′-difluoro-7′-methoxy-2′-(5-pyrimidinyl)spiro[1,3-oxazole-4,9′-xanthen]-2-amine] | –
17 | 0.7 nM | 3.7 nM | N#Cc1cncc(-c2ccc3c(c2)[C@@]2(COC(N)=N2)c2cc(C4=CCOCC4)cc(F)c2O3)c1 [Example 557, 5-((4S)-2-amino-7′-(3,6-dihydro-2H-pyran-4-yl)-5′-fluorospiro[1,3-oxazole-4,9′-xanthen]-2′-yl)-3-pyridinecarbonitrile] | –
18 | 1.7 nM | 5.7 nM | N#Cc1cncc(-c2ccc3c(c2)[C@@]2(COC(N)=N2)c2cc(N4CCOCC4)cc(F)c2O3)c1 [Example 558, 5-((4S)-2-amino-5′-fluoro-7′-(4-morpholinyl)spiro[1,3-oxazole-4,9′-xanthen]-2′-yl)-3-pyridinecarbonitrile] | –
19 | 12.2 nM | 151 nM | NC1=N[C@@]2(CO1)c1cc(-c3ccccc3)ccc1Oc1c(F)cc(-c3cccnn3)cc12 [Example 559, (4S)-4′-fluoro-7′-phenyl-2′-(3-pyridazinyl)spiro[1,3-oxazole-4,9′-xanthen]-2-amine] | –
20 | 2.8 nM | 14.2 nM | C[C@@H]1CN(c2cc(F)c3c(c2)[C@]2(COC(N)=N2)c2cc(-c4cncc(C#N)c4)ccc2O3)C[C@H](C)O1 [Example 560, 5-((4S)-2-amino-7′-((2R,6S)-2,6-dimethyl-4-morpholinyl)-5′-fluorospiro[1,3-oxazole-4,9′-xanthen]-2′-yl)-3-pyridinecarbonitrile] | –
21 | 2 nM | 3.7 nM | CC1(/C=C/c2cc(F)c3c(c2)[C@]2(COC(N)=N2)c2cc(-c4cccnc4F)ccc2O3)COC1 [Example 561, (4S)-4′-fluoro-7′-(2-fluoro-3-pyridinyl)-2′-((E)-2-(3-methyl-3-oxetanyl)ethenyl)spiro[1,3-oxazole-4,9′-xanthen]-2-amine] | –
22 | 2 nM | 5.8 nM | CC1(COc2cc(F)c3c(c2)[C@]2(COC(N)=N2)c2cc(-c4cccc(C#N)c4)ccc2O3)COC1 [Example 562, 3-((4S)-2-amino-5′-fluoro-7′-((3-methyl-3-oxetanyl)methoxy)spiro[1,3-oxazole-4,9′-xanthen]-2′-yl)benzonitrile] | –
23 | 1.3 nM | 12.4 nM | Cn1cc(-c2cc(F)c3c(c2)[C@]2(COC(N)=N2)c2cc(-c4cccc(C#N)c4)ccc2O3)cn1 [Example 563, 3-((4S)-2-amino-5′-fluoro-7′-(1-methyl-1H-pyrazol-4-yl)spiro[1,3-oxazole-4,9′-xanthen]-2′-yl)benzonitrile] | –
24 | 1.6 nM | 9.2 nM | N#Cc1cccc(-c2ccc3c(c2)[C@@]2(COC(N)=N2)c2cc(N4CCOCC4)cc(F)c2O3)c1 [Example 564, 3-((4S)-2-amino-5′-fluoro-7′-(4-morpholinyl)spiro[1,3-oxazole-4,9′-xanthen]-2′-yl)benzonitrile] | –
25 | 4.6 nM | 74.6 nM | CN(C)c1ccc(-c2cc3c(cn2)Oc2ccc(-c4cccnc4F)cc2[C@@]32COC(N)=N2)cc1 [Example 567, (5S)-3-(4-(dimethylamino)phenyl)-7-(2-fluoro-3-pyridinyl)spiro[chromeno[2,3-c]pyridine-5,4′-[1,3]oxazol]-2′-amine] | –
26 | 2.3 nM | 29.5 nM | COc1ccc(-c2cc3c(cn2)Oc2ccc(-c4cccnc4F)cc2[C@@]32COC(N)=N2)cc1 [Example 568, (5S)-7-(2-fluoro-3-pyridinyl)-3-(4-methoxyphenyl)spiro[chromeno[2,3-c]pyridine-5,4′-[1,3]oxazol]-2′-amine] | –
27 | 1.2 nM | 18.2 nM | NC1=N[C@@]2(CO1)c1cc(-c3cccnc3F)ccc1Oc1cnc(-c3cncc(F)c3)cc12 [Example 569, (5S)-7-(2-fluoro-3-pyridinyl)-3-(5-fluoro-3-pyridinyl)spiro[chromeno[2,3-c]pyridine-5,4′-[1,3]oxazol]-2′-amine] | –
28 | 2 nM | 31 nM | COc1ncc(-c2cc3c(cn2)Oc2ccc(-c4cccnc4F)cc2[C@@]32COC(N)=N2)cc1F [Example 570, (5S)-3-(5-fluoro-6-methoxy-3-pyridinyl)-7-(2-fluoro-3-pyridinyl)spiro[chromeno[2,3-c]pyridine-5,4′-[1,3]oxazol]-2′-amine] | –

Row | SMILES | IC50 [1] | IC50 [2, 3] | IC50 ([2]; average IC50, HEK cells)
29 | CC1(C)C=C(c2cc3c(cn2)Oc2ccc(-c4cncnc4)cc2[C@@]32COC(N)=N2)CCO1 [Example 543, (5S)-3-(6,6-dimethyl-3,6-dihydro-2H-pyran-4-yl)-7-(5-pyrimidinyl)spiro[chromeno[2,3-c]pyridine-5,4′-[1,3]oxazol]-2′-amine] | 1.6 nM | – | 24.6 nM
